The results in this text go back to patent US20240261417A1, “SOS1 DEGRADING AGENT AND PREPARATION METHOD THEREFOR AND APPLICATION THEREOF” (SHANGHAI LEADINGTAC PHARMACEUTICAL CO. LTD., priority 2021, published 2024).

The target in one experiment is T1, KRAS-G12C/SOS1 (Homo sapiens, UniProt Q07889).
T1 construct: purchased Cisbio 63ADKOOOCB16PEG
T1 sequence (Q07889 1-1333): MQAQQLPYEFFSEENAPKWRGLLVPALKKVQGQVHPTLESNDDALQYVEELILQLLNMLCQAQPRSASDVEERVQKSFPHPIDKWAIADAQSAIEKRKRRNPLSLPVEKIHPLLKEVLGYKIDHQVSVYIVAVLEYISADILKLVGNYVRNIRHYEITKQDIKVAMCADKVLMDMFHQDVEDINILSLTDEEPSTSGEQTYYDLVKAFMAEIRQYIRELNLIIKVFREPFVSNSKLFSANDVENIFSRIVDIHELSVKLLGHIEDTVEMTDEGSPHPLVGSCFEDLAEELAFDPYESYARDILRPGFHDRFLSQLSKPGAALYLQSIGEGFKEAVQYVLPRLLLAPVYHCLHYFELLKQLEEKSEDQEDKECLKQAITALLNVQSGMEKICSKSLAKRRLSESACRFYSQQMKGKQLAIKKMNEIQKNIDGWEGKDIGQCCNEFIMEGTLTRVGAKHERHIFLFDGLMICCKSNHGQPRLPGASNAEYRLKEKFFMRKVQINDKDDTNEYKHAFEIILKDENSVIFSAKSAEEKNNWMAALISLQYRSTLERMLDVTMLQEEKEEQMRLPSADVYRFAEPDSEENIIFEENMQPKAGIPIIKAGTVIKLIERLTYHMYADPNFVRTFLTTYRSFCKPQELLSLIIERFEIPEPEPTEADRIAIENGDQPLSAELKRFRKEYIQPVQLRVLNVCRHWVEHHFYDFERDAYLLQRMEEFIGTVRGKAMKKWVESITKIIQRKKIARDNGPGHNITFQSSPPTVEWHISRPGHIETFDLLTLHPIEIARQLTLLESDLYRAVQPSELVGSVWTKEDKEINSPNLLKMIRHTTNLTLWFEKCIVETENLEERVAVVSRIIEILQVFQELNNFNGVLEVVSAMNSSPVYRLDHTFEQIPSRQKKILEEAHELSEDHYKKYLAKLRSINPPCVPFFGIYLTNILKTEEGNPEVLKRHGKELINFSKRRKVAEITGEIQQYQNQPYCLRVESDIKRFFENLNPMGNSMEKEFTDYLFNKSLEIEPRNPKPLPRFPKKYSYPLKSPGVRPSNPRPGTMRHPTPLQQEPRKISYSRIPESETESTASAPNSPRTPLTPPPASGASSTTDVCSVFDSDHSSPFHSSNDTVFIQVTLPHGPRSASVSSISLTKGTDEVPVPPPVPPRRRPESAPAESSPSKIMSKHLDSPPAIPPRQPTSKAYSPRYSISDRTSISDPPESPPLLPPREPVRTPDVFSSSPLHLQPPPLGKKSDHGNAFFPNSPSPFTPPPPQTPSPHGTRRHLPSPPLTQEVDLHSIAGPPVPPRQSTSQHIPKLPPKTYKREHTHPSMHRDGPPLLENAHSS
Briefly: KRAS-G12C/SOS1 binding assay (HTRF). Conditions: inhibition of KRAS-G12C/SOS1 binding. Here is the method:
The following method was used to determine the extent of inhibition of KRAS-G12C/SOS1 binding by the preferred compounds of the present invention under in vitro conditions. In this method, the competitive inhibition of KRAS-G12C/SOS1 binding by the preferred compounds was assayed by the homogeneous time-resolved fluorescence (HTRF) technology using the KRAS-G12C/SOS1 binding assay kit (Cisbio, 63ADKOOOCB16PEG).
The experimental procedures were as follows (refer to the kit instructions for details): the compounds of the present invention were each firstly dissolved in DMSO at a concentration of 20 mM, and then diluted in an equal gradient with a buffer in the kit, so that the final concentrations of the test compounds in the reaction system were in a range of 10000 nM-0.04 nM, and the final concentration of DMSO was 0.5%. 2 μL of the compounds were each incubated with 4 μL of 1×Tag1-SOS1, 4 μL of 1×Tag2-KRAS-G12C (containing 10 μM guanosine triphosphate, GTP) at 25° C. for 15 min. Then 5 μL of 1× Anti-Tag1-Tb3+ and 5 μL of 1× Anti-Tag2-XL665 were added to the reaction system, and the mixture was incubated on ice for 3 h. After the incubation, the fluorescence intensity of each well was measured at the excitation wavelength of 337 nm, the fluorescence intensity of each well was read at the emission wavelengths of 620 nm and 665 nm on a microplate reader EnVision (PerkinElmer, 2105) in an HTRF mode, and the Ratio value was calculated by the formula Ratio=(665 nm/620 nm)×[…]. The inhibition rates of the compounds at each concentration were calculated by comparing the fluorescence intensity ratio with that of the control group, and then nonlinear curve fitting was performed by GraphPad Prism 8 in the logarithmic concentration-inhibition rate to obtain the IC50 values of the compounds, as shown in Table 1.
In general terms: In TR-FRET formats the signal depends on donor and acceptor labels being close together.

The target of the next experiment is T2, SOS1 protein (Homo sapiens, UniProt Q07889).
T2 sequence (Q07889 1-1333): T1 sequence (Q07889 1-1333)
Briefly: SOS1 degradation assay (Western blot), NCI-H358 cells. The experiment is classed as cell-based. More on the design: The degradation of SOS1 by the compounds was investigated on KRAS G12C mutant human non-small cell lung cancer cells NCI-H358; host or cells: NCI-H358 (human cancer cell lines). The following applies: SOS1 degradation, NCI-H358 cells, 24 h, Western blot; for DC50: read-out: NCI-H358 (G12C) DC50; for Dmax: read-out: NCI-H358 (G12C) Dmax. An outline of the steps: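 SOS1 degradation was assessed by densitometry of Western blots, relative to untreated controls, after 24 h compound exposure (0.03–3000 nM final, 37 °C, 5% CO2) of cells seeded at 5×10^5/well. Log concentration–response fitting gave DC50 and Dmax.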
(In western blotting, separated proteins are transferred to a membrane and probed.)

Where only a bound is given, the exact number is not on record here.

What is called IC50 is the point on the concentration scale where inhibition reaches its midpoint. In general, DC50 refers to the midpoint of the concentration-degradation curve. By Dmax is commonly meant the largest share of the target that was removed.

In turn, `COc1cc2nc(C)nc(N[C@H](C)c3cc(N)cc(C(F)(F)F)c3)c2cc1[C@H]1CC[C@H](C(=O)N2CCN(CCN3CCC4(CC3)CCN(C(=O)c3ccc(Cl)c(N5CCC(=O)NC5=O)c3)CC4)CC2)CC1` [Example 3, 1-(5-(9-(2-(4-((1R,4R)-4-(4-(((R)-1-(3-amino-5-(trifluoromethyl)phenyl)ethyl)amino)-7-methoxy-2-methylquinazolin-6-yl)cyclohexane-1-carbonyl)piperazin-1-yl)ethyl)-3,9-diazaspiro[5.5]undecane-3-carbonyl)-2-chlorophenyl)dihydropyrimidine-2,4(1H,3H)-dione] registered an IC50 at KRAS-G12C/SOS1 not above 0.015 µM. Besides, on SOS1 protein, the DC50 is less than 0.05 µM and the Dmax is 80 to 100%.
The compound `COc1cc2nc(C)nc(N[C@H](C)c3cc(N)cc(C(F)(F)F)c3)c2cc1[C@H]1CC[C@H](C(=O)N2CCN(CCCOC3CCN(C(=O)c4ccc(Cl)c(N5CCC(=O)NC5=O)c4)CC3)CC2)CC1` [Example 28, 1-(5-(4-(3-(4-((1R,4R)-4-(4-(((R)-1-(3-amino-5-(trifluoromethyl)phenyl)ethyl)amino)-7-methoxy-2-methylquinazolin-6-yl)cyclohexane-1-carbonyl)piperazin-1-yl)propoxy)piperidine-1-carbonyl)-2-chlorophenyl)dihydropyrimidine-2,4(1H,3H)-dione] returned a half-inhibitory concentration (IC50) at KRAS-G12C/SOS1 not above 0.015 µM. On SOS1 protein, the DC50 was less than 0.05 µM and the Dmax is 50 to 80%.
For `COCCOc1cc2nc(C)nc(N[C@H](C)c3cc(N)cc(C(F)(F)F)c3)c2cc1[C@H]1CC[C@H](C(=O)N2CCN(CC3CCC4(CC3)CCN(C(=O)c3ccc(Cl)c(N5CCC(=O)NC5=O)c3)CC4)CC2)CC1` [Example 43, 1-(5-(9-((4-((1R,4R)-4-(4-(((R)-1-(3-amino-5-(trifluoromethyl)phenyl)ethyl)amino)-7-(2-methoxyethoxy)-2-methylquinazolin-6-yl)cyclohexane-1-carbonyl)piperazin-1-yl)methyl)-3-azaspiro[5.5]undecane-3-carbonyl)-2-chlorophenyl)dihydropyrimidine-2,4(1H,3H)-dione], on KRAS-G12C/SOS1, the IC50 was not above 0.015 µM. For the same compound, on SOS1 protein, the DC50 is less than 0.05 µM and the Dmax lay within 50 to 80%.
Compound `COc1cc2nc(C)nc(N[C@H](C)c3cccc4c3CCS4(=O)=O)c2cc1[C@H]1CC[C@H](C(=O)N2CCC(CCOCC3CCN(C(=O)c4ccc(Cl)c(N5CCC(=O)NC5=O)c4)CC3)CC2)CC1` [Example 55, 1-(2-chloro-5-(4-((2-(1-((1R,4R)-4-(4-(((R)-1-(1,1-dioxido-2,3-dihydrobenzo[b]thiophen-4-yl)ethyl)amino)-7-methoxy-2-methylquinazolin-6-yl)cyclohexane-1-carbonyl)piperidin-4-yl)ethoxy)methyl)piperidine-1-carbonyl)phenyl)dihydropyrimidine-2,4(1H,3H)-dione] displayed an IC50 at KRAS-G12C/SOS1 not above 0.015 µM.
Consider `COc1cc2nc(C)nc(N[C@H](C)c3cc(-c4c(Cl)cccc4CN(C)C)cs3)c2cc1[C@H]1CC[C@H](C(=O)N2CCC(CCOCC3CCN(C(=O)c4ccc(OC(F)(F)F)c(N5CCC(=O)NC5=O)c4)CC3)CC2)CC1` [Example 58, 1-(5-(4-((2-(1-((1R,4R)-4-(4-(((R)-1-(4-(2-chloro-6-((dimethylamino)methyl)phenyl)thien-2-yl)ethyl)amino)-7-methoxy-2-methylquinazolin-6-yl)cyclohexane-1-carbonyl)piperidin-4-yl)ethoxy)methyl)piperidine-1-carbonyl)-2-(trifluoromethoxy)phenyl)dihydropyrimidine-2,4(1H,3H)-dione], for which the IC50 on KRAS-G12C/SOS1 was not above 0.015 µM.
Still for that read-out and setting: with `COc1cc2nc(C)nc(N[C@H](C)c3cccc4c3CCS4(=O)=O)c2cc1[C@H]1CC[C@H](C(=O)N2CCC(CCOCC3CCN(C(=O)c4ccc(C(F)(F)F)c(N5CCC(=O)NC5=O)c4)CC3)CC2)CC1` [Example 66, 1-(5-(4-((2-(1-((1R,4R)-4-(4-(((R)-1-(1,1-dioxido-2,3-dihydrobenzo[b]thiophen-4-yl)ethyl)amino)-7-methoxy-2-methylquinazolin-6-yl)cyclohexane-1-carbonyl)piperidin-4-yl)ethoxy)methyl)piperidine-1-carbonyl)-2-(trifluoromethyl)phenyl)dihydropyrimidine-2,4(1H,3H)-dione] the figure was not above 0.015 µM.
Take `COc1cc2nc(C)nc(N[C@H](C)c3cc(N)cc(C(F)(F)F)c3)c2cc1[C@H]1CC[C@H](C(=O)N2CCC(COCC3CCN(C(=O)c4ccc(Cl)c(N5CCC(=O)NC5=O)c4)CC3)CC2)CC1` [Example 76, 1-(5-(4-(((1-((1R,4R)-4-(4-(((R)-1-(3-amino-5-(trifluoromethyl)phenyl)ethyl)amino)-7-methoxy-2-methylquinazolin-6-yl)cyclohexane-1-carbonyl)piperidin-4-yl)methoxy-d2)methyl)piperidine-1-carbonyl)-2-chlorophenyl)dihydropyrimidine-2,4(1H,3H)-dione]: the 50% degradation concentration (DC50) at SOS1 protein is less than 0.05 µM.
As for `Cc1nc(N[C@H](C)c2cc(N)cc(C(F)(F)F)c2)c2cc(C3CCN(CC(=O)NCCC4CCC5(CC4)CCN(C(=O)c4ccc(Cl)c(N6CCC(=O)NC6=O)c4)CC5)CC3)ccc2n1` [Example 77, (R)-2-(4-(4-((1-(3-amino-5-(trifluoromethyl)phenyl)ethyl)amino)-2-methylquinazolin-6-yl)piperidin-1-yl)-N-(2-(3-(4-chloro-3-(2,4-dioxotetrahydropyrimidin-1(2H)-yl)benzoyl)-3-azaspiro[5.5]undecan-9-yl)ethyl)acetamide], on SOS1 protein, the DC50 is 0.5 to 1 µM and the Dmax fell in the range of 80 to 100%.
The corresponding values for `Cc1nc(N[C@H](C)c2cc(N)cc(C(F)(F)F)c2)c2cc([C@H]3CC[C@H](C(=O)N4CCN(CC5CCC6(CC5)CCN(C(=O)c5ccc(Cl)c(N7CCC(=O)NC7=O)c5)CC6)CC4)CC3)ncc2n1` [Example 78, 1-(5-(9-((4-((1R,4R)-4-(4-(((R)-1-(3-amino-5-(trifluoromethyl)phenyl)ethyl)amino)-2-methylpyrido[3,4-d]pyrimidin-6-yl)cyclohexane-1-carbonyl)piperazin-1-yl)methyl)-3-azaspiro[5.5]undecane-3-carbonyl)-2-chlorophenyl)dihydropyrimidine-2,4(1H,3H)-dione] are 0.1 to 0.5 µM and 50 to 80%.
